Assay results published in patent publication US20160279135A1, “THERAPIES FOR TREATING MYELOPROLIFERATIVE DISORDERS” (Gilead Sciences, Inc., priority 2013, published 2016).
“And” between values parts separate entries of the source, which are not always exact repeats. Identical values can stand only once.

Assays:
[1] = system: p-AKT Ser473; experiment: flow cytometry of AKT phosphorylation in CD34+ progenitor cells from MF patients; format: cell-based, human; conditions: 2 h, MF progenitor cells
Method: (§1) In this example, PBMCs were isolated from whole blood of myelofibrosis (MF) patients who had not received treatments (i.e. naïve patients) or received ruxolitinib (i.e. rux-treated patients). The cells were treated with 0.02, 0.2, or 2.0 μM of Compound B or vehicle (0.1% DMSO in 0.1% FBS/RPMI) for 2 hours at 37° C. The cells were then fixed, permeabilized, and stained for FACS analysis. Antibodies specific to p-AKT Ser473 and pS6RP Ser235/236 were used to detect AKT phosphorylation (p-AKT) and S6RP phosphorylation (p-S6RP) in CD34^+/CD3^−/CD14^−/CD19/CD66^− (BD Biosciences) gated cells using flow cytometry. The percentage of basal (i.e. untreated with TPO) AKT and S6RP phosphorylation were normalized to vehicle control (i.e. “no TPO” values shown in Table 2). A two-tailed paired t-test (GraphPad Prism) was used to calculate p-values. Values of p<0.05 were considered significant.
(§2) Also, PBMC cells were treated with Compound B and with TPO as described above. The percentage of TPO-activated AKT and S6RP phosphorylation were normalized to those of TPO-treated vehicle. […] Also, the inhibition to PI3K signaling was dose-dependent to Compound B.
(§3) Similar studies were conducted with PI3K inhibitors Compounds C and D. PBMC from MF patients had received ruxolitinib (rux) and MF patient had received Compound A. The cells were treated with Compounds C or D at 0, 20.0, 200.0, 2000.0 nM for 2 hours at 37° C. Cells were treated with TPO for 10 minutes. The percentage of basal p-AKT and p-S6RP levels were normalized to vehicle control and those of TPO-treated were normalized to TPO-treated vehicle control. The PI3K inhibitors Compounds C and D had the chemical names of (S)-2-(1-((9H-purin-6-yl)amino)ethyl)-6-fluoro-3-phenylquinazolin-4(3H)-one and (S)-2,4-diamino-6-(((5-chloro-8-fluoro-4-oxo-3-(pyridine-3-yl)-3,4-dihydroquinazolin-2-yl)(cyclopropyl)methyl)amino)pyrimidine-5-carbonitrile, respectively.

[2] = system: pS6RP Ser235/236; experiment: flow cytometry of S6RP phosphorylation in CD34+ progenitor cells from MF patients; format: cell-based, human; conditions: 2 h, MF progenitor cells
Method: as §1, §2, §3

[3] = system: p-S6RP; experiment: flow cytometry of p-S6RP in TPO-stimulated CD34+ cells from MF patients on chronic ruxolitinib (Example 8); format: cell-based, human; conditions: for percentage of the p-S6RP levels: 2 h, then TPO 50 ng/mL, one value per patient, TPO vehicle = 100
Method: (§4) In this study, PBMCs were isolated from the whole blood from five MF patients receiving chronic ruxolitinib treatment (rux 1-rux 5). The cells were treated with either vehicle, ruxolitinib, and/or Compound B for 2 hours then stimulated with TPO (50 ng/mL) for 10 minutes. Ruxolitinib at the dose of 1 or 20 nM and Compound B at the dose of 45, 200, or 700 nM were used.
(§5) The treated cells were then fixed, permeabilized and stained for FACS analysis using FACSCalibur analyzed using BD FACSDiva software.

[4] = system: p-STAT5; experiment: flow cytometry of p-STAT5 in TPO-stimulated CD34+ cells from MF patients on chronic ruxolitinib (Example 8); format: cell-based, human; conditions: 2 h, then TPO 50 ng/mL, one value per patient, TPO vehicle = 100
Method: as §4, §5

[5] = clinical; conditions: human, in vivo
Source text: For in vitro or in vivo studies, the effect amount of Compounds A, B, C, D, E, or ruxolinitib may be adjusted according to the experimental condition. Similarly, the effect amount of Compounds D1, D2, D3, D4, D5, D6, D7, D8, D9, E1, E2, E3, E4, E5, E6, E7, E8, E9, or F, may be adjusted according to the experimental condition for in vitro or in vivo studies. For example, compounds may be used in the amount of 0.001, 0.002, 0.003, 0.004, 0.005, 0.006, 0.007, 0.008, 0.009, 0.01, 0.02, 0.03, 0.04, 0.05, 0.06, 0.07, 0.08, 0.09, 0.1, 0.2, 0.3, 0.4, 0.5, 0.6, 0.7, 0.8, 0.9, 1.0, 1.5, 2.0, 2.5, 3.0, 3.5, 4.0, 5.0, 6.0, 7.0, 8.0, 9.0, or 10.0 μM. In some studies, the in vitro doses of the compounds may be calculated to correspond to the clinical doses of the compounds. The calculation may consider various factors, such as protein binding and plasma concentration. […] It is understood that the in vitro doses may differ, depend on the assay condition and other calculation factors, and that the clinical doses may differ depend on the disease indication and the patient condition.
as §4
Next, Pfeiffer cells were treated with IL6 (0 or 3 ng/mL), Compound A (0, 136, 272, or 695 nM), and/or Compound B (0, 74, 200, or 421 nM) (n=4 per group) for 96 hours. The doses in this assay may correspond to those used in a clinical setting. […] In addition, the in-vitro dose of 136 nM Compound A may correspond to the potential Caverage detected in patients receiving Compound A at 300 mg once a day.

[6] = system: pSTAT3 (Tyr705); experiment: Western blot of pSTAT3 in IL6-stimulated Pfeiffer cells; format: cell-based; conditions: vs 0 ng/mL IL6, normalized to total STAT3, n=1
Method: Pfeiffer cells were stimulated for 4 hours with 0, 1, 3, or 10 ng/mL of interleukin 6 (IL6) (n=1 per group) to activate STAT3 (i.e. increase the levels of pSTAT3). The cells were harvested, lysed and analyzed by Western blot. Antibodies specific for pSTAT3 (Tyr705) and total STAT3 were used to detect the levels of pSTAT3 and total STAT3, respectively. Raw pSTAT3 levels were quantified using densitometry software (Image Studio) and normalized to total STAT3 levels.

[7] = system: Pfeiffer cells; experiment: CellTiter-Glo cell viability of Pfeiffer cells with IL6; format: cell-based; conditions: Homo sapiens, 96 h, IL6 3 ng/mL, n=4, read-out: percentage of viable Pfeiffer cells, AVG
Method: Next, Pfeiffer cells were treated with IL6 (0 or 3 ng/mL), Compound A (0, 136, 272, or 695 nM), and/or Compound B (0, 74, 200, or 421 nM) (n=4 per group) for 96 hours.
Cellular viability was determined using the CellTiter-Glo Luminescent Cell Viability Assay (Promega). The percentage of viable cells was normalized to the groups that were not treated with Compound A or Compound B, and standard deviation was calculated.

[8] = 20 nM, Basal, Compound A-treated Cells, vehicle = 100
[9] = 20 nM, Basal, Rux-treated Cells, vehicle = 100
[10] = 20 nM, TPO 10 min, Compound A-treated Cells, TPO-treated vehicle = 100
[11] = 20 nM, TPO 10 min, Rux-treated Cells, TPO-treated vehicle = 100
[12] = 200 nM, Basal, Compound A-treated Cells, vehicle = 100
[13] = 200 nM, Basal, Rux-treated Cells, vehicle = 100
[14] = 200 nM, TPO 10 min, Compound A-treated Cells, TPO-treated vehicle = 100
[15] = 200 nM, TPO 10 min, Rux-treated Cells, TPO-treated vehicle = 100
[16] = 2000 nM, Basal, Compound A-treated Cells, vehicle = 100
[17] = 2000 nM, Basal, Rux-treated Cells, vehicle = 100
[18] = 2000 nM, TPO 10 min, Compound A-treated Cells, TPO-treated vehicle = 100
[19] = 2000 nM, TPO 10 min, Rux-treated Cells, TPO-treated vehicle = 100

Compound	percentage of p-AKT (pAKT) [1, 8]	percentage of p-AKT (pAKT) [1, 9]	percentage of p-AKT (pAKT) [1, 10]	percentage of p-AKT (pAKT) [1, 11]	percentage of p-AKT (pAKT) [1, 12]	percentage of p-AKT (pAKT) [1, 13]	percentage of p-AKT (pAKT) [1, 14]	percentage of p-AKT (pAKT) [1, 15]	percentage of p-AKT (pAKT) [1, 16]	percentage of p-AKT (pAKT) [1, 17]	percentage of p-AKT (pAKT) [1, 18]	percentage of p-AKT (pAKT) [1, 19]	percentage of p-S6RP (pS6) [2, 8]	percentage of p-S6RP (pS6) [2, 9]	percentage of p-S6RP (pS6) [2, 10]	percentage of p-S6RP (pS6) [2, 11]	percentage of p-S6RP (pS6) [2, 12]	percentage of p-S6RP (pS6) [2, 13]	percentage of p-S6RP (pS6) [2, 14]	percentage of p-S6RP (pS6) [2, 15]	other results
C[C@H](Nc1ncnc2[nH]cnc12)c1nc2ccc(F)cc2c(=O)n1-c1ccccc1 [Compound C, (S)-2-(1-((9H-purin-6-yl)amino)ethyl)-6-fluoro-3-phenylquinazolin-4(3H)-one]	89%	88%	65%	65%	82%	90%	59%	53%	75%	75%	43%	24%	82%	65%	66%	84%	75%	59%	70%	62%	percentage of p-S6RP (pS6) [2, 16]: 53%; percentage of p-S6RP (pS6) [2, 17]: 43%; percentage of p-S6RP (pS6) [2, 18]: 36%; percentage of p-S6RP (pS6) [2, 19]: 42%
N#CC[C@H](C1CCCC1)n1cc(-c2ncnc3[nH]ccc23)cn1 [ruxolitinib, reference compound]	–	–	–	–	–	–	–	–	–	–	–	–	–	–	–	–	–	–	–	–	inhibition at 0.02 µM ([3]; Homo sapiens, ruxolitinib 20 nM alone, TPO-stimulated cells, read-out: p-S6RP levels inhibited or reduced by): 69%; pS6RP levels inhibited ([3]; ruxolitinib 1 nM alone, TPO-stimulated cells): not inhibited; percentage of the p-S6RP levels ([3]; ruxolitinib 1 nM): 101% and 78% and 92% and 129% and 75%; percentage of the p-S6RP levels ([3]; ruxolitinib 20 nM): 42% and 25% and 22% and 34% and 28%; percentage of the p-STAT5 levels ([4]; ruxolitinib 1 nM): 83% and 94% and 97% and 68% and 91%; percentage of the p-STAT5 levels ([4]; ruxolitinib 20 nM): 77% and 63% and 74% and 71% and 62%; in vitro dose corresponding to the Cmin [5]: 1 nM; Cmax ([5]; 15 mg): 20 nM
N#Cc1c(N)nc(N)nc1N[C@H](c1nc2c(F)ccc(Cl)c2c(=O)n1-c1cccnc1)C1CC1 [Compound D, (S)-2,4-diamino-6-(((5-chloro-8-fluoro-4-oxo-3-(pyridine-3-yl)-3,4-dihydroquinazolin-2-yl)(cyclopropyl)methyl)amino)pyrimidine-5-carbonitrile]	87%	83%	49%	58%	57%	85%	41%	50%	60%	76%	19%	39%	58%	58%	74%	48%	48%	50%	55%	39%	percentage of p-S6RP (pS6) [2, 16]: 18%; percentage of p-S6RP (pS6) [2, 17]: 39%; percentage of p-S6RP (pS6) [2, 18]: 25%; percentage of p-S6RP (pS6) [2, 19]: 19%
IL6: interleukin 6 (IL6) used to activate STAT3 in Pfeiffer cells	–	–	–	–	–	–	–	–	–	–	–	–	–	–	–	–	–	–	–	–	increase of pSTAT3 levels (STAT3 activation) ([6]; 1 ng/mL IL6, 4 h): 2.8 fold; increase of pSTAT3 levels (STAT3 activation) ([6]; 3 ng/mL IL6, 4 h): 3.8 fold; increase of pSTAT3 levels (STAT3 activation) ([6]; 10 ng/mL IL6, 4 h): 2.5 fold
N#CCNC(=O)c1ccc(-c2ccnc(Nc3ccc(N4CCOCC4)cc3)n2)cc1 [Compound A, N-(cyanomethyl)-4-[2-(4-morpholinoanilino)pyrimidin-4-yl]benzamide]	–	–	–	–	–	–	–	–	–	–	–	–	–	–	–	–	–	–	–	–	viability at 0.136 µM ([7]; 136 nM Compound A): 104%; viability at 0.272 µM ([7]; 272 nM Compound A): 99%; viability at 0.695 µM ([7]; 695 nM Compound A): 73%; Cmax ([5]; 300 mg): 695 nM
